Source: patent US20120302555A1, “METHOD OF TREATMENT USING EPROSARTAN” (priority 2008, published 2012)
Structures can show the parent of a compound that is named as a salt.

Assays:
[1] = Thermodynamic stability of polymorphic forms; format: physicochemical
Description: Crystalline eprosartan acid exists in two different polymorphic forms—the α (alpha) and β (beta) forms. The a polymorphic form of eprosartan acid has the highest thermodynamic stability of up to 200° C. Although the Examples use the α form of eprosartan acid, the β form of eprosartan acid can also be used in the same way.

[2] = in vivo; cited from earlier work

| Structure (SMILES) | highest thermodynamic stability of up to [1] | variable and mean absolute bioavailability [2] |
| --- | --- | --- |
| CCCCc1ncc(/C=C(\Cc2cccs2)C(=O)O)n1Cc1ccc(C(=O)O)cc1 [a polymorphic form of eprosartan acid] | up to 200 °C |  |
| CCCCc1ncc(/C=C(\Cc2cccs2)C(=O)O)n1Cc1ccc(C(=O)O)cc1 [eprosartan mesylate] |  | approximately 13% |
